Test results published in patent US8110681B2, “Compounds for the treatment of spinal muscular atrophy and other uses” (The United States of America as represented by the …, priority 2006, dated 2012).
pEC50: −log10 of the molar value. Where two headings read alike, the source gives them in different places.

Legend:
[1] = test system: SMN2-linked luciferase-reporter gene construct; assay: SMN splice reporter assay (SMN2-linked luciferase reporter, Example 10); type: cell-based; settings: for maximal fold induction: read-out: SMN Splice Reporter Assay (Example 10) Avg MaxFold Increase
In short: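 Values are fold-increase in luciferase signal relative to baseline cells without compound. The cervical carcinoma line used holds a fusion of alternatively spliced SMN2 sequence and luciferase. Readable frame, and thus signal, arises only with exon 7-including splicing.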

[2] = test system: luciferase reporter containing the UAG stop codon; assay: Translational read-through luciferase reporter assay, UAG stop codon; type: cell-based; settings: read-out: MaxFold Increase
From the text: This assay is described in detail in WO 01/44516 A2. This is a cell-based luciferase reporter assay designed to detect translational read-through via insertion of a translational stop codon within the luciferase coding sequence. In the presence of compounds that promote read-through of translational stop codons, active luciferase is produced and detected via chemiluminescence. We have shown that indoprofen analogs are active in two versions of this assay—one containing a UGA stop codon and one containing a UAG stop codon. The data in the table is from the luciferase reporter containing the UAG stop codon. This is the first stop codon downstream of the improper splice junction between exons 6 and 8 in the human SMN2 transcript.

[3] = Plasma and brain pharmacokinetics in mice; type: in vivo, FVB or CD-1 mice; settings: 5 mg/kg, single dose
Method: Compounds were formulated in solution using the method of cosolvency as described by Lee et al., Int. J. Pharmaceutics, 253: 111-119 (2003). FVB or CD-1 mice, approximately 5 weeks old, were given a single dose of compound at the indicated concentration. Compounds were administered orally, with the exception of ALB-116638 and ALB-117573, which were administered IV. Three to five mice were euthanized at various times between 15 minutes and 24 hours after dosing and brain and plasma were harvested. Tissues were homogenized in acetonitrile and analyzed on an API 4000 LC/MS/MS system coupled with an Agilent 1100 series liquid chromatograph. All pharmacokinetic analyses were conducted using WinNonlin (Version 4.01; Pharsight, Palo Alto, Calif.) with the exception of brain/plasma ratios, which were calculated using Microsoft Excel 2000. AUC values are the area under the concentration-time curve from time zero to the last measured time point. The half life values are extrapolated from 3-4 time points taken at less than 4 hours after dosing.

[4] = SMN2-linked luciferase reporter, average
[5] = maximum fold increase of reporter signal, average
[6] = SMN2-linked luciferase reporter, average maximum fold increase

| pEC50 [1, 4] | SMILES | maximal fold induction [1, 5] | maximal fold induction [2] | maximal fold induction [1, 6] | other results |
| --- | --- | --- | --- | --- | --- |
| 7.28 | CC(C)c1ccc(N2Cc3ccccc3C2=O)cc1 [ALB-114274] | 1.4 | 2.6 | – | – |
| 6.71 | CC(C)c1ccc(N2Cc3ccc(Br)cc3C2=O)cc1 [ALB-114901] | 1.52 | 2.6 | – | – |
| 7.01 | Cc1ccc2c(c1)C(=O)N(c1ccc(C(C)C)cc1)C2 [ALB-115586] | 1.32 | 2.3 | – | – |
| 6.79 | Cc1cccc2c1C(=O)N(c1ccc(C(C)C)cc1)C2 [ALB-115812] | 1.35 | 3 | – | – |
| 7.52 | Cc1ccc2c(c1)CN(c1ccc(C(C)C)cc1)C2=O [ALB-115948] | 1.42 | 2.8 | – | – |
| 6.51 | CCOc1ccc2c(c1)C(=O)N(c1ccc(C(C)C)cc1)C2 [ALB-116074] | 1.51 | 2.9 | – | – |
| 6.57 | CC(C)c1ccc(N2Cc3ccc(O)cc3C2=O)cc1 [ALB-116078] | – | 3.3 | 1.64 | – |
| 7.51 | CC(C)c1ccc(N2Cc3ccc(Cl)cc3C2=O)cc1 [ALB-116246] | 1.35 | 2.7 | – | – |
| 6.78 | CC(C)c1ccc(N2Cc3ccc(N(C)S(C)(=O)=O)cc3C2=O)cc1 [ALB-116638] | – | – | 1.51 | Brain AUC ([3]; IV): 537.2 ng·h/g; half-life ([3]; mouse, brain, IV, read-out: Brain T½ (converted)): 7.3 h |
| 7.09 | CC(C)c1ccc(N2Cc3cc(Cl)ccc3C2=O)cc1 [ALB-116932] | 1.45 | 2.4 | – | – |
| 7.05 | CNc1ccc2c(c1)C(=O)N(c1ccc(C(C)C)cc1)C2 [ALB-117046] | 1.44 | 2.9 | – | – |
| 6.33 | CC(C)c1ccc(N2Cc3cccc(Cl)c3C2=O)cc1 [ALB-117454] | 1.51 | 3.1 | – | – |
| 5.96 | CC(C)c1ccc(N2Cc3ccc(C(F)(F)F)cc3C2=O)cc1 [ALB-117902] | 1.57 | 2 | – | – |
| 6.69 | CC(=O)Nc1ccc2c(c1)C(=O)N(c1ccc(C(C)C)cc1)C2 [ALB-118157] | – | – | 1.51 | – |
| 6.13 | CC(C)c1ccc(N2Cc3cccc(O)c3C2=O)cc1 [ALB-118158] | – | – | 1.54 | – |
| 5.68 | CC(C)c1ccc(N2Cc3cc(OC(F)F)ccc3C2=O)cc1 [ALB-118159] | – | – | 1.32 | – |
| 7.34 | CC(C)c1ccc(N2Cc3ccc4c(c3C2=O)OCCO4)cc1 [ALB-118160] | – | – | 1.43 | – |
| 7.57 | CC(C)c1ccc(N2Cc3cc(O)ccc3C2=O)cc1 [ALB-118277] | – | – | 1.15 | – |
| 5.86 | CCOc1cccc2c1C(=O)N(c1ccc(C(C)C)cc1)C2 [ALB-118278] | 1.5 | – | – | – |
| 6.66 | CC(C)c1ccc(N2Cc3cccc(OC(F)F)c3C2=O)cc1 [ALB-118279] | – | – | 1.55 | – |
| 6.92 | COc1cc2c(cc1F)CN(c1ccc(C(C)C)cc1)C2=O [ALB-118413] | 1.39 | – | – | – |
| 5.45 | CCNC(=O)Nc1ccc2c(c1)C(=O)N(c1ccc(C(C)C)cc1)C2 [ALB-118414] | – | – | 1.35 | – |
| 4.88 | CCCNC(=O)Nc1ccc2c(c1)C(=O)N(c1ccc(C(C)C)cc1)C2 [ALB-118415] | – | – | 1.4 | – |
| 6.06 | CNC(=O)Nc1ccc2c(c1)C(=O)N(c1ccc(C(C)C)cc1)C2 [ALB-118558] | – | – | 1.58 | – |

The next lines start with the compound.

| SMILES | pEC50 [1, 4] | maximal fold induction [1, 5] | maximal fold induction [2] | maximal fold induction [1, 6] | other results |
| --- | --- | --- | --- | --- | --- |
| CC(C(=O)O)c1ccc(N2Cc3ccc(Cl)cc3C2=O)cc1 (centres unmarked) [ALB-111743] | 6.57 | 1.67 | 2.7 | – | – |
| CCCc1ccc2c(c1)C(=O)N(c1ccc(C(C)C(=O)OC(C)(C)C)cc1)C2 (centres unmarked) [ALB-113213] | 6.25 | 1.23 | 1.9 | – | – |
| CC(C(=O)O)c1ccc(N2Cc3ccc(N(C)C)cc3C2=O)cc1 (centres unmarked) [ALB-113648] | 7.55 | 1.6 | 3.3 | – | – |
| CC(C(=O)O)c1ccc(N2Cc3ccc(C(F)(F)F)cc3C2=O)cc1 (centres unmarked) [ALB-113652] | 5.83 | 1.66 | 2.9 | – | – |
| Br.COCC(C)c1ccc(N2Cc3ccc(C)cc3C2=O)cc1 (centres unmarked) [ALB-113967] | 6.80 | 1.54 | 2.6 | – | Brain AUC ([3]; oral): 170.5 ng·h/g; Kp ([3]; mouse, brain and plasma, oral, read-out: Brain/Plasma Ratio): 0.29; half-life ([3]; mouse, brain, oral, read-out: Brain T½ (converted)): 1.1 h; AUC ([3]; mouse, plasma, oral): 595 ng·h/mL; half-life ([3]; mouse, plasma, oral, read-out: Plasma T½ (converted)): 1.5 h |
| COc1ccc2c(c1)C(=O)N(c1ccc(C(C)C(O)OC)cc1)C2 (centres unmarked) [ALB-114441] | 7.12 | 1.67 | 3.2 | – | – |
| COCC(C)c1ccc(N2Cc3ccc(OC)cc3C2=O)cc1 (centres unmarked) [ALB-114783] | 6.73 | 1.37 | 2.6 | – | – |
| CC(C(=O)O)c1ccc(N2Cc3cc4c(cc3C2=O)OCCO4)cc1 (centres unmarked) [ALB-114844] | 8.10 | 1.36 | 2.4 | – | – |
| COc1ccc2c(c1)C(=O)N(c1ccc(C)cc1)C2 [ALB-115084] | 7.22 | 1.39 | 2.3 | – | – |
| CC(C)c1ccc(N2Cc3cc4c(cc3C2=O)OCO4)cc1 [ALB-116362] | 6.91 | – | 2.3 | 1.52 | – |
| CCCC(C)c1ccc(N2Cc3ccc(OC)cc3C2=O)cc1 (centres unmarked) [ALB-117451] | 5.54 | 1.74 | 2.1 | – | – |
| CC(C)(C)c1ccc(N2Cc3cc4c(cc3C2=O)OCCO4)cc1 [ALB-117452] | 6.54 | – | 2.2 | 1.4 | – |
| CC(C)c1ccc(N2Cc3ccc(-c4ccccc4)cc3C2=O)cc1 [ALB-118037] | 6.03 | 1.34 | – | – | – |
| COc1ccc(-c2ccc3c(c2)C(=O)N(c2ccc(C(C)C)cc2)C3)cc1 [ALB-118038] | – | 1.08 | – | – | – |
| CCOc1ccc2c(c1)CN(c1ccc(C(C)C)cc1)C2=O [ALB-118276] | – | 1.05 | – | – | – |
| CC(C)c1ccc(N2Cc3ccc(NC(=O)Nc4ccccc4)cc3C2=O)cc1 [ALB-118416] | – | – | – | 1.17 | – |
| CC(C)NC(=O)Nc1ccc2c(c1)C(=O)N(c1ccc(C(C)C)cc1)C2 [ALB-118559] | – | – | – | 1.1 | – |
| CC(C)c1ccc(N2Cc3ccc(NC(=O)N(C)C)cc3C2=O)cc1 [ALB-118731] | 6.07 | – | – | 1.2 | – |
| CCN(C)C(=O)Nc1ccc2c(c1)C(=O)N(c1ccc(C(C)C)cc1)C2 [ALB-118732] | – | – | – | 1.15 | – |
| CC(C)c1ccc(N2Cc3ccc(NC(=O)N(C)c4ccccc4)cc3C2=O)cc1 [ALB-118733] | – | – | – | 1.12 | – |
| CCCN(C)C(=O)Nc1ccc2c(c1)C(=O)N(c1ccc(C(C)C)cc1)C2 [ALB-118898] | – | – | – | 1.06 | – |
| CC(C)c1ccc(N2Cc3ccc(NC(=O)N(C)C(C)C)cc3C2=O)cc1 [ALB-118899] | – | – | – | 1.08 | – |
| CC(C)c1ccc(N2Cc3ccc(N(C)C(=O)N(C)C)cc3C2=O)cc1 [ALB-118901] | 6.31 | – | – | 1.31 | – |
| CC(C)(C)c1ccc(N2Cc3ccc(OC(F)F)cc3C2=O)cc1 [ALB-119043] | 6.00 | – | – | 1.39 | – |
| COc1cc2c(cc1F)CN(c1ccc(C(C)C(=O)O)cc1)C2=O (centres unmarked) [ALB-119048] | 6.59 | 1.54 | – | – | – |
| CCN(C)C(=O)N(C)c1ccc2c(c1)C(=O)N(c1ccc(C(C)C)cc1)C2 [ALB-119049] | – | – | – | 1.08 | – |
| CC(C(=O)O)c1ccc(N2Cc3ccc(OC(F)F)cc3C2=O)cc1 (centres unmarked) [ALB-119335] | 7.29 | – | – | 1.54 | – |
| CC(C(=O)OC(C)(C)C)c1ccc(N2Cc3ccc(OC(F)F)cc3C2=O)cc1 (centres unmarked) [ALB-119336] | 6.14 | – | – | 1.21 | – |
| Cc1ccc(N2Cc3ccc(OC(F)F)cc3C2=O)cc1 [ALB-119515] | 6.84 | – | – | 1.46 | – |
